Results on two compounds are retold here after US12370183B2, “Compositions and methods for treating malaria” (Rutgers, The State University of New Jersey, priority 2020, dated 2025).

Some results are limits rather than exact numbers.

As a reminder, the IC50 is the concentration that gives 50% inhibition.

The subject of data set [1] is P. berghei Luciferase sporozoites in HepG2-A16-CD81EGFP cells. In words: P. berghei Luciferase liver stage assay. The data set is classed as cell-based. Particulars: Plasmodium berghei, 48 h after infection, bioluminescence, read-out: IC50 against sporozoite infection of liver cells (P. berghei Luciferase). The protocol: Compounds 66 and 177 were tested for activity against sporozoite infection of liver cells as well the viability of liver schizonts of the murine Plasmodium berghei species transformed with Luciferase by using an assay adapted from S. Swann et al. (2016) High-Throughput Luciferase-Based Assay for the Discovery of Therapeutics That Prevent Malaria. ACS Infectious Diseases 2: 4. 281-293 (2016).
Compounds 66 and 177 were tested for activity against sporozoite infection of liver cells of the murine Plasmodium berghei species transformed with Luciferase by using the following P. berghei Luciferase liver stage assay.
Hepatic human transformed cells (HepG2) pre-treated for 18 hours with either compound 66 or 177 were infected with freshly dissected P. berghei Luciferase sporozoites. After another 48 hours of incubation with the compound, the viability of P. berghei exoerythrocytic forms (EEF) was measured by bioluminescence.
Plasmodium berghei Luciferase sporozoites were obtained by dissection of infected A. stephensi mosquito salivary glands supplied by the New York University Insectary. Dissected salivary glands were homogenized in a glass tissue grinder and filtered twice using Steriflip Vacuum-Driven Filtration System (20 μm pore size, Millipore) and counted using a hemocytometer. The sporozoites were kept on ice until needed. […]

In data set [2] the test system is HepG2-A16-CD81EGFP cells. In words: HepG2 cytotoxicity bioluminescence assay (CellTiter-Glo). Particulars: for concentration below which no toxicity was seen: HepG2-A16-CD81EGFP, 48 h, CellTiter-Glo. It is filed as cell-based, human. The protocol: Compounds 66 and 177 were tested for viability of liver schizonts of the murine Plasmodium berghei species transformed with Luciferase by using the following assay adapted and modified from S. Swann et al. (2016) High-Throughput Luciferase-Based Assay for the Discovery of Therapeutics That Prevent Malaria. ACS Infectious Diseases 2: 4. 281-293 (2016), but with the removal of the infection methods. The CellTiter-Glo® ° (Promega Corp., Madison WI) is a method to determine the number of viable cells in culture based on quantitation of the ATP present, which signals the presence of metabolically active cells.
HepG2-A16-CD81EGFP cells were stably transformed to express a GFP-CD81 fusion protein (S. Yalaoui et al., Hepatocyte permissiveness to Plasmodium infection is conveyed by a short and structurally conserved region of the CD81 large extracellular domain. PLoS Pathog. 4, e1000010 (2008); O. Silvie et al, Hepatocyte CD81 is required for Plasmodium falciparum and Plasmodium yoelii sporozoite infectivity. Nat. Med. 9, 93 (2003)). The transformed HepG2-A16-CD81EGFP cells were cultured at 37° C. in 5% CO2 in DMEM (Invitrogen, Carlsbad, USA) supplemented with 10% FCS, 0.29 mg/ml glutamine, 100 units penicillin and 100 μg/ml streptomycin.
[…] HepG2-A16-CD81EGFP cells in 5 μl of medium (2×10^5 cells/ml, 5% FBS, 5× Pen/Strep/Glu) were seeded in 1536-well plates (Greiner BioOne white solid bottom custom GNF mold) 20-26 hours prior to the actual infection. 24 hours prior to infection, 50 nl of compound in DMSO (0.5% final DMSO concentration per well) was transferred with acoustic transfer machine (ATS) into the assay plates (10 μM-50 μM final concentration). Puromycin (25 μM) and 0.5% DMSO were used as positive and negative controls, respectively.
5 μl of the HepG2 screening media were dispensed into each well of the 1536 plate format using the BioTek MultiFlo FX Multi-Mode Cell Dispenser and a 5 μl BioTek Liquid Handling MicroFlo cassette. This step was to maintain equal concentrations of compounds with the Pb-Luc infected plates that were performed in parallel with this assay (P. berghei-Luciferase Liver Stage Bioluminescence Assay). After incubation at 37° C. for 48 hours, the cell viability was quantified by bioluminescence measurement. […] Puromycin and naive wells were used as controls on each plate. The compounds were screened in a 12 point serial dilution to determine their IC50 values.
Media was removed by spinning the inverted plates at 150 RCF for 1 minute. CellTiter-Glo® reagent (Promega Corp., Madison WI) was prepared following manufacturer instructions and diluted with DI H2O 1:1 (final solution is 50% CellTiterGlo® reagent in DI H2O). […] Immediately after addition of the CellTiter-Glo® reagent, the plates were read by the Envision Multilabel Reader (PerkinElmer).
A general note: Cellular ATP, detected with luciferase, serves as a proxy for viable cell number.

For the compound `O=C(Nc1ccc(F)c(F)c1)c1c2c(nc3ccccc13)CCN(Cc1ccccc1)C2` [Compound 66, 2-Benzyl-N-(3,4-difluorophenyl)-1,2,3,4-tetrahydrobenzo[b][1,6]naphthyridine-10-carboxamide], in data set [1], the IC50 was over 50 µM. Moreover, in data set [2], the “cell-based toxicity, in words” value is “acceptable levels of cell-based toxicity” and the “concentration below which no toxicity was seen” value was at least 50 µM.
For `O=C1c2c3c(nc4ccccc24)CCN(Cc2ccccc2)C3N1c1ccc(F)c(F)c1` (stereo not drawn) [Compound 177, 3-Benzyl-2-(3,4-difluorophenyl)-2a,3,4,5-tetrahydrobenzo[b]pyrrolo[4,3,2-de][1,6]naphthyridin-1(2H)-one], the IC50 in data set [1] is over 12.5 µM. For the same compound, in data set [2], the “cell-based toxicity, in words” value is “acceptable levels of cell-based toxicity” and the “concentration below which no toxicity was seen” value was at least 12.5 µM.
